# Experimental data from publication PMC4503722, “Novel Phenotypic Outcomes Identified for a Public Collection of Approved Drugs from a Publicly Accessible Panel of Assays” (PLoS ONE, 2015).
# Legend:
# [1] = test system: endothelial tube formation in co-cultures of ECFCs and ADSCs treated with VEGF; assay: cells; assay type: cell-based, human
# [2] = test system: DLD-1; assay: cells; assay type: cell-based; details: for Basal_Viability ATP DLD-1 IC50/EC50: assay number 23
# [3] = test system: SW480; assay: cells; assay type: cell-based; details: for Basal_Viability ATP SW480 IC50/EC50: assay number 24
# [4] = test system: HCT116; assay: cells; assay type: cell-based; details: basal; for Basal_Viability ATP HCT116 IC50/EC50: assay number 25
# [5] = test system: HCT116 cells treated with a GSK3β inhibitor; assay: cells; assay type: cell-based; details: for GSK3b inh pretreated_Viability ATP HCT116 IC50/EC50: assay number 26, GSK3b inhibitor pretreated; for IC50/EC50, GSK3b inh pretreated_Viability ATP HCT116 (assay number 26): GSK3b inh pretreated
# [6] = test system: Colo320; assay: cells; assay type: cell-based; details: for Basal_Viability ATP Colo 320 IC50/EC50: assay number 27
# [7] = test system: HT-29; assay: cells; assay type: cell-based; details: for Basal_Viability ATP HT-29 IC50/EC50: assay number 28
# [8] = test system: RKO; assay: cells; assay type: cell-based; details: for Basal_Viability ATP RKO IC50/EC50: assay number 29
# [9] = test system: SNU-C1; assay: cells; assay type: cell-based; details: for Basal_Viability ATP SNU-C1 IC50/EC50: assay number 30
# [10] = test system: ECFC/ADSC co-culture cell nuclei number
smiles,measurement,setting,value
CC(C)Cn1cnc2c1c(=O)n(C)c(=O)n2C [NCGC00168348-03],VEGF_ADSC\ECFC Angio CD31 TubeArea IC50/EC50,[1],> 10 µM
same,Basal_Viability ATP DLD-1 IC50/EC50,[2]; basal,> 20 µM
same,Basal_Viability ATP SW480 IC50/EC50,[3]; basal,> 20 µM
same,Basal_Viability ATP HCT116 IC50/EC50,[4],> 20 µM
same,GSK3b inh pretreated_Viability ATP HCT116 IC50/EC50,[5],> 20 µM
same,Basal_Viability ATP Colo 320 IC50/EC50,[6]; basal,> 20 µM
same,Basal_Viability ATP HT-29 IC50/EC50,[7]; basal,> 20 µM
same,Basal_Viability ATP RKO IC50/EC50,[8]; basal,> 20 µM
same,Basal_Viability ATP SNU-C1 IC50/EC50,[9]; basal,> 20 µM
same,VEGF_ADSC\ECFC Angio Hoechst NucArea IC50/EC50,[10],> 10 µM
CC(=O)N(CC(O)CN(C(C)=O)c1c(I)c(C(=O)NCC(O)CO)c(I)c(C(=O)NCC(O)CO)c1I)c1c(I)c(C(=O)NCC(O)CO)c(I)c(C(=O)NCC(O)CO)c1I (stereo not shown) [NCGC00179408-03],VEGF_ADSC\ECFC Angio CD31 TubeArea IC50/EC50,[1],> 10 µM
same,Basal_Viability ATP DLD-1 IC50/EC50,[2]; basal,> 20 µM
same,Basal_Viability ATP SW480 IC50/EC50,[3]; basal,> 20 µM
same,Basal_Viability ATP HCT116 IC50/EC50,[4],> 20 µM
same,GSK3b inh pretreated_Viability ATP HCT116 IC50/EC50,[5],> 20 µM
same,Basal_Viability ATP Colo 320 IC50/EC50,[6]; basal,> 20 µM
same,Basal_Viability ATP HT-29 IC50/EC50,[7]; basal,> 20 µM
same,Basal_Viability ATP RKO IC50/EC50,[8]; basal,> 20 µM
same,Basal_Viability ATP SNU-C1 IC50/EC50,[9]; basal,> 20 µM
same,VEGF_ADSC\ECFC Angio Hoechst NucArea IC50/EC50,[10],> 10 µM
CN1CCN(CCCN2c3ccccc3Sc3ccc(S(=O)(=O)N(C)C)cc32)CC1 [NCGC00179625-03],"IC50/EC50, VEGF_ADSC\ECFC Angio CD31 TubeArea (assay number 2)",[1],> 10 µM
same,"IC50/EC50, Basal_Viability ATP DLD-1 (assay number 23)",[2]; basal,14.5523 µM
same,"IC50/EC50, Basal_Viability ATP SW480 (assay number 24)",[3]; basal,> 20 µM
same,"IC50/EC50, Basal_Viability ATP HCT116 (assay number 25)",[4],> 20 µM
same,"IC50/EC50, GSK3b inh pretreated_Viability ATP HCT116 (assay number 26)",[5],> 20 µM
same,"IC50/EC50, Basal_Viability ATP Colo 320 (assay number 27)",[6]; basal,8.1661 µM
same,"IC50/EC50, Basal_Viability ATP HT-29 (assay number 28)",[7]; basal,> 20 µM
same,"IC50/EC50, Basal_Viability ATP RKO (assay number 29)",[8]; basal,5.9932 µM
same,"IC50/EC50, Basal_Viability ATP SNU-C1 (assay number 30)",[9]; basal,2.1198 µM
same,"IC50/EC50, VEGF_ADSC\ECFC Angio Hoechst NucArea (assay number 3)",[10],> 10 µM
N/C(=N\N=C\c1ccc(Cl)cc1)N/N=C/c1ccc(Cl)cc1 [NCGC00181026-02],"IC50/EC50, VEGF_ADSC\ECFC Angio CD31 TubeArea (assay number 2)",[1],> 10 µM
same,"IC50/EC50, Basal_Viability ATP DLD-1 (assay number 23)",[2]; basal,0.6538 µM
same,"IC50/EC50, Basal_Viability ATP SW480 (assay number 24)",[3]; basal,0.2252 µM
same,"IC50/EC50, Basal_Viability ATP HCT116 (assay number 25)",[4],0.394 µM
same,"IC50/EC50, GSK3b inh pretreated_Viability ATP HCT116 (assay number 26)",[5],0.3442 µM
same,"IC50/EC50, Basal_Viability ATP Colo 320 (assay number 27)",[6]; basal,0.4583 µM
same,"IC50/EC50, Basal_Viability ATP HT-29 (assay number 28)",[7]; basal,0.6811 µM
same,"IC50/EC50, Basal_Viability ATP RKO (assay number 29)",[8]; basal,0.47 µM
same,"IC50/EC50, Basal_Viability ATP SNU-C1 (assay number 30)",[9]; basal,0.2795 µM
same,"IC50/EC50, VEGF_ADSC\ECFC Angio Hoechst NucArea (assay number 3)",[10],> 10 µM
CC(C)(CO)[C@@H](O)C(=O)NCCC(=O)NCCSSCCNC(=O)CCNC(=O)[C@H](O)C(C)(C)CO [NCGC00181028-02],VEGF_ADSC\ECFC Angio CD31 TubeArea IC50/EC50,[1],> 10 µM
same,Basal_Viability ATP DLD-1 IC50/EC50,[2]; concentration response,> 20 µM
same,Basal_Viability ATP SW480 IC50/EC50,[3]; concentration response,> 20 µM
same,Basal_Viability ATP HCT116 IC50/EC50,[4]; concentration response,> 20 µM
same,GSK3b inh pretreated_Viability ATP HCT116 IC50/EC50,[5]; concentration response,> 20 µM
same,Basal_Viability ATP Colo 320 IC50/EC50,[6]; concentration response,> 20 µM
same,Basal_Viability ATP HT-29 IC50/EC50,[7]; concentration response,> 20 µM
same,Basal_Viability ATP RKO IC50/EC50,[8]; concentration response,> 20 µM
same,Basal_Viability ATP SNU-C1 IC50/EC50,[9]; concentration response,> 20 µM
same,VEGF_ADSC\ECFC Angio Hoechst NucArea IC50/EC50,[10],> 10 µM
CC(CC=O)CCCC(C)(C)O (stereo not shown) [NCGC00181031-03],VEGF_ADSC\ECFC Angio CD31 TubeArea IC50/EC50,[1],> 10 µM
same,Basal_Viability ATP DLD-1 IC50/EC50,[2]; basal,> 20 µM
same,Basal_Viability ATP SW480 IC50/EC50,[3]; basal,> 20 µM
same,Basal_Viability ATP HCT116 IC50/EC50,[4],> 20 µM
same,GSK3b inh pretreated_Viability ATP HCT116 IC50/EC50,[5],> 20 µM
same,Basal_Viability ATP Colo 320 IC50/EC50,[6]; basal,> 20 µM
same,Basal_Viability ATP HT-29 IC50/EC50,[7]; basal,> 20 µM
same,Basal_Viability ATP RKO IC50/EC50,[8]; basal,> 20 µM
same,Basal_Viability ATP SNU-C1 IC50/EC50,[9]; basal,> 20 µM
same,VEGF_ADSC\ECFC Angio Hoechst NucArea IC50/EC50,[10],> 10 µM
CC(C)[C@@H]1CC[C@@H](C)C[C@H]1OC(=O)c1ccccc1O [NCGC00181042-02],VEGF_ADSC\ECFC Angio CD31 TubeArea IC50/EC50,[1],> 10 µM
same,Basal_Viability ATP DLD-1 IC50/EC50,[2]; concentration response,> 20 µM
same,Basal_Viability ATP SW480 IC50/EC50,[3]; concentration response,> 20 µM
same,Basal_Viability ATP HCT116 IC50/EC50,[4]; concentration response,> 20 µM
same,GSK3b inh pretreated_Viability ATP HCT116 IC50/EC50,[5]; concentration response,> 20 µM
same,Basal_Viability ATP Colo 320 IC50/EC50,[6]; concentration response,> 20 µM
same,Basal_Viability ATP HT-29 IC50/EC50,[7]; concentration response,> 20 µM
same,Basal_Viability ATP RKO IC50/EC50,[8]; concentration response,> 20 µM
same,Basal_Viability ATP SNU-C1 IC50/EC50,[9]; concentration response,> 20 µM
same,VEGF_ADSC\ECFC Angio Hoechst NucArea IC50/EC50,[10],> 10 µM
